Assay results published in patent US20180177749A1, “USE OF CYP EXPRESSION TO DIRECT THERAPEUTIC INTERVENTION IN CANCER” (REGENTS OF THE UNIVERSITY OF MINNESOTA, priority 2016, published 2018).

Test system: MCF-7 xenograft
Assay: RPPA of protein expression, MCF-7 xenograft endpoint analysis
Format: in vivo, nude mice
Conditions: 4 mg/kg/day vs. PBS
Protocol: Frozen xenograft tissue samples were embedded in OCT, and 8 μm sections were obtained using a cryostat. […] The resulting whole tissue lysates were boiled for 8 min at 100° C. and then printed onto a nitrocellulose slide (Avid, Grace Biolabs) along with a BSA protein concentration curve to estimate total protein concentration in each lysate. Total protein levels were assessed in each sample by staining with Sypro Ruby Protein Blot Stain (Invitrogen) according to manufacturer's instructions.
The total protein concentration in each sample was estimated by printing onto a nitrocellulose slide along with a BSA standard concentration curve, and total protein levels were assessed by staining with Sypro Ruby Protein Blot Stain (Invitrogen) according to manufacturer's instructions. Tissue lysates were diluted to 250 μg/ml in extraction buffer and stored at −80° C. prior to printing of arrays. RPPA printing and analysis of xenograft samples was conducted as previously described (Wulfkuhle et al., Clin Cancer Res. 2012; 18:6426-35). Antibody staining intensities were quantified using the MicroVigene v5 Software Package (Vigenetech). Signaling pathway activation was evaluated by staining the arrays with 156 antibodies against signaling endpoints, mainly phosphorylated and cleaved protein products. Before use for RPPA analysis, antibody specificity was confirmed by Western blot and analysis as previously described (Wulfkuhle et al., Clin Cancer Res. 2012; 18:6426-35).

[1] = *separate RPPA analysis, separate β actin probe

CCCCCCNC(=N)NC(=N)NCc1ccccc1 [HBB, N1-hexyl-N5-benzyl-biguanide]
fold change: 4EBP1 S65: 1.051 | fold change: 4EBP1 T37/46: 1.261 | fold change: 4EBP1 T70: 0.595 | fold change: A-Raf S299: 0.862 | fold change: AKT S473: 1.042 | fold change: AKT T308: 0.793 | fold change: ALK: 1.079 | fold change: ALK Y1604: 0.954 | fold change: AMPKalpha S485: 1.126 | fold change: AMPKbeta S108: 0.665 | fold change: ATF2 T69/71: 0.713 | fold change: ATM S1981: 1.034 | fold change: ATP CItrate Lyase S454: 1.000 | fold change: ATR S428: 0.810 | fold change: AXL: 0.566 | fold change: Acetyl-CoA Carboxylase S79: 0.927 | fold change: Actin beta: 1.000 | fold change: Aurora A T288/B T232/C T198: 0.646 | fold change: B-RAF: 1.130 | fold change: B-Raf S445: 0.764 | fold change: BAD: 2.424 | fold change: BAD S112: 0.833 | fold change: BAD S136: 0.958 | fold change: BCL-2: 0.825 | fold change: BIM: 0.727 | fold change: Bak: 0.789 | fold change: Bax: 0.807 | fold change: Bcl_xL: 0.909 | fold change: Beclin 1: 0.881 | fold change: CREB S133: 0.626 | fold change: Chk1 S345: 1.290 | fold change: Cl Caspase 3 D175: 1.109 | fold change: Cl Caspase 9 D315: 1.151 | fold change: Cl Caspase 9 D330: 1.244 | fold change: Cleaved PARP D214: 1.277 | fold change: Cofilin S3: 0.443 | fold change: CrkL Y207: 0.962 | fold change: Cyclin A: 1.779 | fold change: Cyclin B1 V152: 1.197 | fold change: Cyclin D1 (G124-326): 1.277 | fold change: Cyclin D1 T286: 0.611 | fold change: E-Cadherin: 0.669 | fold change: EGFR: 0.857 | fold change: EGFR Y992: 0.803 | fold change: EGFR Y1068: 1.089 | fold change: EGFR Y1148: 0.891 | fold change: EGFR Y1173: 0.954 | fold change: ER TOTAL: 1.687 | fold change: ER alpha S118: 0.964 | fold change: ERK 1-2 T202/Y204: 0.423 | fold change: ERK TOTAL: 0.791 | fold change: Elk S383: 1.402 | fold change: Ephrin A3 Y799/A4 Y799/A5 Y833: 1.149 | fold change: ErbB2/HER2 Y877: 0.951 | fold change: ErbB2/HER2 Y1248: 1.239 | fold change: ErbB3/HER3: 0.851 | fold change: ErbB3/HER3 Y1197: 1.223 | fold change: ErbB3/HER3 Y1289: 1.268 | fold change: FADD S194: 0.672 | fold change: FAK Y576/577: 1.021 | fold change: FKHR T24/FKHRL1 T32: 0.698 | fold change: FKHRL1 S253: 0.960 | fold change: FOXO1 S256: 0.854 | fold change: GRB2: 0.830 | fold change: GSK-3alpha/beta S21/9: 0.791 | fold change: HIF-1 alpha: 2.406 | fold change: HSP27 S82: 0.877 | fold change: HSP70: 1.453 | fold change: HSP90a T5/7: 0.945 | fold change: Heregulin: 20.774 | fold change: Histone H3 S28: 0.898 | fold change: IGF1R Y1135/36-IR Y1150/51: 1.101 | fold change: IGF-1R Y1131/IR Y1146: 1.019 | fold change: IGFBP7: 0.992 | fold change: IL6: 1.260 | fold change: IRS1: 1.014 | fold change: IRS-1 S612: 0.952 | fold change: IkappaB-alpha S32/36: 1.130 | fold change: Insulin Receptor Beta: 1.261 | fold change: Jak2 Y1007: 0.881 | fold change: KI67: 0.731 | fold change: LC3B: 1.097 | fold change: LIMK1 T508/LIMK2 T505: 0.795 | fold change: LKB1 S428: 1.269 | fold change: MARCKS S152/156: 1.071 | fold change: MCSFR Y723: 1.228 | fold change: MDM2 S166: 0.868 | fold change: MEK 1/2 S217/221: 0.770 | fold change: Met Y1234/1235: 1.033 | fold change: Musashi: 0.898 | fold change: NF-kappaB p65 S536: 0.817 | fold change: PAK1 S199/204-PAK2 S192/197: 1.221 | fold change: PAK1 T423/PAK2 T402: 1.028 | fold change: PDGFR alpha Y754: 1.144 | fold change: PDGFR beta: 0.705 | fold change: PDGFR beta Y716: 0.887 | fold change: PDK1 S241: 0.712 | fold change: PDL1: 34.857 | fold change: PKA C T197: 0.907 | fold change: PKC delta/theta S643/S676: 0.671 | fold change: PLK1 T210: 1.018 | fold change: PTEN: 0.726 | fold change: PTEN S380: 0.783 | fold change: PUMA: 0.919 | fold change: RAS TOTAL: 1.543 | fold change: Ras_GRF1: 1.021 | fold change: Rb S780: 0.674 | fold change: Ret Y905: 0.810 | fold change: Ros Y2274: 1.201 | fold change: S6 Ribosomal Protein S240/244: 0.817 | fold change: SAPK/JNK T183/Y185: 1.033 | fold change: SGK1 S78: 1.318 | fold change: SMAD2 S245/250/255: 0.760 | fold change: STAT3 S727: 1.040 | fold change: Shc Y317: 0.792 | fold change: Smad1 Ser463/465-Smad5 Ser463/465-Smad9 Ser465/467: 0.900 | fold change: Src Y527: 0.675 | fold change: Src family Y416: 0.471 | fold change: Stat 1 Y701: 0.937 | fold change: Stat3 Y705: 0.936 | fold change: Stat 5 Y694: 0.558 | fold change: TGF-beta: 0.952 | fold change: TNF alpha: 1.186 | fold change: Tuberin/TSC2 Y1571: 1.208 | fold change: VEGFR2 Y996: 0.828 | fold change: Vimentin: 0.896 | fold change: XIAP: 0.835 | fold change: c-Abl T735: 0.776 | fold change: c-Abl Y245: 0.846 | fold change: c-ErbB2/HER2: 1.938 | fold change: c-Kit Y703: 4.550 | fold change: c-Met TOTAL: 0.877 | fold change: c-Myc: 0.879 | fold change: c-Raf S338: 1.016 | fold change: eIF4G S1108: 0.791 | fold change: eNOS/NOS III S116: 0.902 | fold change: mTOR S2448: 1.034 | fold change: p27 Kip1: 0.925 | fold change: p27 T187: 0.685 | fold change: p38 MAP Kinase T180/Y182: 1.011 | fold change: p53: 0.997 | fold change: p53 S15: 0.990 | fold change: p70S6 Kinase: 0.674 | fold change: p70 S6 Kinase S371: 0.762 | fold change: p70 S6 Kinase T389: 0.773 | fold change: p70 S6 Kinase T412: 0.998 | fold change: p90RSK S380: 1.016 | fold change: p90RSK T359/S363: 0.884 | fold change: pYAP S127: 0.931 | fold change: AMPK T172* [1]: 0.598 | fold change: AMPK total* [1]: 1.69 | fold change: PKM2 Y105* [1]: 2.13 | fold change: PKM2 total* [1]: 1.01
